Here are results for seven compounds from patent publication US8741602B2, “Method for producing glucuronic acid conjugate using Saccharomyces cerevisiae” (Toyama Prefecture, priority 2010, dated 2014).

The target in one data set is T1, hUGT1A9 (Homo sapiens, UniProt O60656).
T1 construct: expressed in transfected cells; host or cells: Saccharomyces cerevisiae AH22
T1 sequence (O60656 26-530): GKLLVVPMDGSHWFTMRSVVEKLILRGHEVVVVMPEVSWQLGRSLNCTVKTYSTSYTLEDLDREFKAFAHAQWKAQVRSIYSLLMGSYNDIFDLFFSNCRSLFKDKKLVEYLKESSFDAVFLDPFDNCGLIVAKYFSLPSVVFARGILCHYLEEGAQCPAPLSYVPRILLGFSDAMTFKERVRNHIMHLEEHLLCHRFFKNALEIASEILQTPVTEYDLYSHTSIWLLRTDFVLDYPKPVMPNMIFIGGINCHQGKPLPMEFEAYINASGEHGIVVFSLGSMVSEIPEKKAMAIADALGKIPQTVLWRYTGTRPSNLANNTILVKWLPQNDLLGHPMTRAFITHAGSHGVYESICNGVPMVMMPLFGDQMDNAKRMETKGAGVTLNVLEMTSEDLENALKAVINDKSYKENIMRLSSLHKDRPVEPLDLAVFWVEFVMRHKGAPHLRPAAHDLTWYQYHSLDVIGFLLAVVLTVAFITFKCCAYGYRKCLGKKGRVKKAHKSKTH
The data set is described as follows: Glucuronide production in resting S. cerevisiae AH22 cells co-expressing UDPGDH and UGT1A9. It counts as cell-based. As for the experimental part:
(§1) Each phase was analyzed by UPLC system.

Data set [1] concerns the target T2, rat UDP-glucose dehydrogenase (Rattus norvegicus, UniProt O70199).
T2 construct: confirmed the gene product from GenBank Acc; ID NO: 9; expressed in transfected cells; host or cells: Saccharomyces cerevisiae AH22
T2 sequence (O70199 1-493): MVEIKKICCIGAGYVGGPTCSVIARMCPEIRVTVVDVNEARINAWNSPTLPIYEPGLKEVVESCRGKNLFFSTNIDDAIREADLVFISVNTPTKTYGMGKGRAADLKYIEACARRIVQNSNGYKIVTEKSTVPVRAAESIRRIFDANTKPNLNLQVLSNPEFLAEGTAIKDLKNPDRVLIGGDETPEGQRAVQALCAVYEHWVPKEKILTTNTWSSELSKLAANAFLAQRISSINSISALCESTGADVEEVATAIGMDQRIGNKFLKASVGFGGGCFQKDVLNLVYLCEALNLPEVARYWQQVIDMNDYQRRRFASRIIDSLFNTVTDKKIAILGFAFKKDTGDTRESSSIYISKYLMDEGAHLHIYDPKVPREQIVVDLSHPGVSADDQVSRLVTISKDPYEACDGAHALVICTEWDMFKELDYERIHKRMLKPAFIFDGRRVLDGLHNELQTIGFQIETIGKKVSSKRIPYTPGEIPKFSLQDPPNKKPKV
Description: Production of UDP-glucuronic acid in yeast cells transformed with rat UDP-glucose dehydrogenase gene. It is filed as cell-based. Conditions: estimation of sugar nucleotide, FIG. 4 line C. From the text:
Upper water phase of extracts were separated by centrifugation.

The target in a further data set is T3, UGT1A6 (Homo sapiens, UniProt P19224).
T3 sequence (P19224 27-532): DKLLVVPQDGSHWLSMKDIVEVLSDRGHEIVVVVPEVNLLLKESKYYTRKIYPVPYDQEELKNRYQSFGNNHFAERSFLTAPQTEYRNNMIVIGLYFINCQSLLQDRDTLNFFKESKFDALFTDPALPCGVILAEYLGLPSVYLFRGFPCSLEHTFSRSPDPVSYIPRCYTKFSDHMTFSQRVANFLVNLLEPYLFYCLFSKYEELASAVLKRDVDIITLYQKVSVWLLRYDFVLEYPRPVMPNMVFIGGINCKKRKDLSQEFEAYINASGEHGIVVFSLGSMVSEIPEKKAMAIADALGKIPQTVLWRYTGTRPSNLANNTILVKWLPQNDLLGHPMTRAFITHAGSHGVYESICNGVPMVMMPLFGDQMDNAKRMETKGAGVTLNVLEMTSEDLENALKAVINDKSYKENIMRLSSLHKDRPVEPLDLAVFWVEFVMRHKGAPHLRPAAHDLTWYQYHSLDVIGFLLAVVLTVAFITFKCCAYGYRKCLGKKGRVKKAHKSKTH
The data set is described as follows: Glucuronide production in resting S. cerevisiae AH22 cells co-expressing UDPGDH and UGT1A6. It is filed as cell-based. Set-up: expressed in transfected cells; host or cells: Saccharomyces cerevisiae AH22. As for the experimental part:
as §1
Time course of conversion in the transformant with the highest activity of glucuronidation (AH22: pAUR/At.UDPGDH+pGYR/hUGT1A6) was examined (FIG. 6).
Glucose concentration dependence of conversion in the transformant with the highest activity of glucuronidation (AH22: pAUR/At.UDPGDH+pGYR/hUGT1A6) was examined (FIG. 7).

In a further data set the target is T4, hUGT1A8 (Homo sapiens, UniProt Q9HAW9).
T4 construct: expressed in transfected cells; host or cells: Saccharomyces cerevisiae AH22
T4 sequence (Q9HAW9 26-530): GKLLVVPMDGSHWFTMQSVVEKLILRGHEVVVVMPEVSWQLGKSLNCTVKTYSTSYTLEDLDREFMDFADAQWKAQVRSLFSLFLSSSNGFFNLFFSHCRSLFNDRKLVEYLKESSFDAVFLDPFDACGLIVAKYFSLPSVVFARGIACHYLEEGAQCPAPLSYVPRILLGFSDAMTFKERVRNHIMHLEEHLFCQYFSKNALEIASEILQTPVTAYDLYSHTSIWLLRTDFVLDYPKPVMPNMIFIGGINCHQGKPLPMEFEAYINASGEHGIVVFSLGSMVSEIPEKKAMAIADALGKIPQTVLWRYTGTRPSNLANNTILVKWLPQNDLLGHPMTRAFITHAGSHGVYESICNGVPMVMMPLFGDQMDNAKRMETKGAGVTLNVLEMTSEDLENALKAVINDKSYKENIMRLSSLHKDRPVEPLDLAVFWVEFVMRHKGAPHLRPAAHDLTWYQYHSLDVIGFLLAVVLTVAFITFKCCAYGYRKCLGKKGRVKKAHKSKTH
Description: Glucuronide production in resting S. cerevisiae AH22 cells co-expressing UDPGDH and UGT1A8. It counts as cell-based. As for the experimental part:
as §1

For data set [2], the target named is T5, hUGT1A1 (Homo sapiens, UniProt P22309).
T5 sequence (P22309 28-533): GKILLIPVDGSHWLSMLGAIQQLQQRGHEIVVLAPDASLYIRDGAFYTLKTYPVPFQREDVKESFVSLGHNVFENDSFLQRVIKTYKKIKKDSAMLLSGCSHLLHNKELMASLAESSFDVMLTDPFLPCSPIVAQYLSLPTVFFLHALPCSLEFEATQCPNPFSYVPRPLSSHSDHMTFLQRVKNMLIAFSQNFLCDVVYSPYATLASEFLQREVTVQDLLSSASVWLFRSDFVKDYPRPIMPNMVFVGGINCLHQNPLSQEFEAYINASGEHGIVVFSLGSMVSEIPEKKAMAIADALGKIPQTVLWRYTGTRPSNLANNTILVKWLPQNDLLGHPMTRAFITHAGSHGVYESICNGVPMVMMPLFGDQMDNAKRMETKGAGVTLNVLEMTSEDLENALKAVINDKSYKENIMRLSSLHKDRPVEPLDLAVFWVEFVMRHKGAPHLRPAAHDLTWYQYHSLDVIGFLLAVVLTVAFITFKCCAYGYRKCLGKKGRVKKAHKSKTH
The data set is described as follows: Glucuronide production in resting S. cerevisiae AH22 cells co-expressing UDPGDH and UGT1A1. As to conditions: UGT1A1 with At.UDPGDH; 7-hydroxycoumarine substrate, 30° C., 24 hrs.
Description: (§2) To confirm the production of 7-hydroxycoumarine glucuronide in the resting yeast cells containing UDPGDH and UGT, transformants were cultivated in selection medium at 30° C., 48 hrs, and the resultant yeast cells were suspended with appropriate buffer solution containing 0.1-1 mM 7-hydroxycoumarine and 1-8% (w/v) glucose. After incubation at 30° C., 24 hrs, 2-fold volume of chloroform:methanol (3:1, v/v) was added to reaction medium containing yeast cells. Centrifugation of extracts was separated to upper water and lower organic phase. Lower organic phase were evaporated and redissolved in 200 μl acetonitrile. Each phase was analyzed by UPLC system. Condition of analysis are described below; column: Cosmosil 2.5C18-MS-II (2.0 mm×100 mm, nacalai tesque), flow rate 0.5 ml/min, detection 320 nm, temperature 45° C. Condition of gradient elution: water-acetonitrile with 0.5% (v/v) trifluoroacetic acid, 10% (v/v) acetonitrile (4 min), 10-70% acetonitrile (6 min), 70-10% acetonitrile (2 min), 10% acetonitrile (4 min).
(§3) To confirm the production of quercetin glucuronide in the resting yeast cells containing UDPGDH and UGT (pAUR/At.UDPGDH+pGYR/hUGT1A1), transformants were cultivated in selection medium at 30° C., 48 hrs, and the resultant yeast cells were suspended with 0.1 M potassium phosphate buffer (pH 7.4) containing 0.2 mM quercetin and 8% (w/v) glucose. After incubation at 30° C., 24 hrs, 2-fold volume of chloroform:methanol (3:1, v/v) was added to reaction medium containing yeast cells. Centrifugation of extracts was separated to upper water and lower organic phase. Lower organic phase were evaporated and redissolved in 200 μl acetonitrile. Quercetin glucuronides in yeast cells was isolated and detected by WAKOPAK™ Navi C30-5 (3 mm×150 mm, Wako Chemical)-column-HPLC system with followed condition; flow rate; 0.4 ml/min, detection; 370 nm, temperature 37° C. Condition of gradient elution: water-acetonitrile with 0.5% (v/v) phosphoric acid, 18% (v/v) acetonitrile (10 min), 18-55% acetonitrile (10 min), 55% acetonitrile (5 min).
(§4) To compare the production ability of glucuronide in budding (Saccharomyces cerevisiae) and fission yeast (Schizosaccharomyces pombe) containing UDPGDH and UGT, several transformants (No. 4 in Table 2 and transformant with N-terminal modified UGT1A1) were selected for the assay. These transformants were cultivated in selection medium at 30° C., 48 hrs, and the resultant yeast cells were suspended with appropriate buffer solution containing 0.5 mM 4-methylumberrferone and 8% (w/v) glucose. After incubation at 30° C., 24 hrs, 2-fold volume of chloroform:methanol (3:1, v/v) was added to reaction medium containing yeast cells. Centrifugation of extracts was separated to upper water and lower organic phase. Lower organic phase were evaporated and redissolved in 200 μl acetonitrile. Each phase was analyzed by UPLC system.
(§5) Condition of analysis are described below; column: COSMOSIL™ 2.5C18-MS-II (2.0 mm×100 mm, Nacalai Tesque), flow rate 0.5 ml/min, detection 320 nm, temperature 45° C. Condition of gradient elution: water-acetonitrile with 0.1% (v/v) trifluoroacetic acid, 10% acetonitrile (4 min), 10-70% acetonitrile (6 min), 70-10% acetonitrile (2 min), 10% acetonitrile (3 min).

In another data set the target is T6, hUGT1A7 (Homo sapiens, UniProt Q9HAW7).
T6 construct: expressed in transfected cells; host or cells: Saccharomyces cerevisiae AH22
T6 sequence (Q9HAW7 26-530): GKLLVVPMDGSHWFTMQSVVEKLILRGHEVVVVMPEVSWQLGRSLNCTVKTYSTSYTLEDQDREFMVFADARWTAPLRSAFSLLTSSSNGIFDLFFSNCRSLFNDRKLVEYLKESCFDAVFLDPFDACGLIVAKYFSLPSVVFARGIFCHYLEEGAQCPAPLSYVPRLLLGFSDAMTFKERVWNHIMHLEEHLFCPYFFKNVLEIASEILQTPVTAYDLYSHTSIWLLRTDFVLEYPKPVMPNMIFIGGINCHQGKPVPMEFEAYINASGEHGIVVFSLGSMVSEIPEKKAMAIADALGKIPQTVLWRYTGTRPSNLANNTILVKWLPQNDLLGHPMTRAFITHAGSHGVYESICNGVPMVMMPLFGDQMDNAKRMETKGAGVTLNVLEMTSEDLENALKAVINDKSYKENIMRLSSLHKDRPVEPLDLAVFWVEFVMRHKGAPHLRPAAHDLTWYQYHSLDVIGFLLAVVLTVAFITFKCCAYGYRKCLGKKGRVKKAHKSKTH
The data set is described as follows: Glucuronide production in resting S. cerevisiae AH22 cells co-expressing UDPGDH and UGT1A7. It is filed as cell-based. Conditions: UGT1A7 with At.UDPGDH; 7-hydroxycoumarine substrate, 30° C., 24 hrs. As for the experimental part:
as §1

In data set [3] the target is T5, hUGT1A1. Conditions: 24 h, 0.2 mM, pH 7.4.
Description: as §2, §3, §4, §5
A further data set deals with T7, UGT1A10 (Homo sapiens, UniProt Q9HAW8).
T7 construct: expressed in transfected cells; host or cells: Saccharomyces cerevisiae AH22
T7 sequence (Q9HAW8 26-530): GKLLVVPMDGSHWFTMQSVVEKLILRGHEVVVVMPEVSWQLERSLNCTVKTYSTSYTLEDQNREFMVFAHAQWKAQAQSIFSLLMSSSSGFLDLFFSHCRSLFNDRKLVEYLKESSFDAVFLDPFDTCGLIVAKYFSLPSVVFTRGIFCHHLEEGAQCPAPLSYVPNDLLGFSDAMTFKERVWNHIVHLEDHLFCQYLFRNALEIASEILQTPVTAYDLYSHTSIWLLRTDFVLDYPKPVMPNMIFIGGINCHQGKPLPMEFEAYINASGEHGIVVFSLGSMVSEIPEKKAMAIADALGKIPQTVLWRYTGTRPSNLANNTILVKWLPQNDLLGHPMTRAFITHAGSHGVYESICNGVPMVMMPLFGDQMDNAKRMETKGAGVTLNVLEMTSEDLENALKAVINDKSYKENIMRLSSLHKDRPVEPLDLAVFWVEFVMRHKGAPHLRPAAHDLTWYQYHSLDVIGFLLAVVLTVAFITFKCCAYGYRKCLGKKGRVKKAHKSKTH
The data set is described as follows: Acyl glucuronide production in resting S. cerevisiae cells co-expressing UDPGDH and UGT1A10. It is filed as cell-based. As to conditions: 1 mM mefenamic acid. As for the experimental part:
as §1

SMILES strings stand for the structures.

As for `COc1c(C)c2c(c(O[C@@H]3O[C@H](C(=O)O)[C@@H](O)[C@H](O)[C@H]3O)c1C/C=C(\C)CCC(=O)O)C(=O)OC2` [mycophenolic-O-glucuronide], on hUGT1A9 (0.2 mM mycophenolic acid, UGT1A9), the “site of glucuronidation (FIG. 10)” value was “preferential production”.

Turning to `O=C(O)[C@H]1O[C@H](OP(=O)(O)OP(=O)(O)OC[C@H]2O[C@@H](n3ccc(=O)[nH]c3=O)[C@H](O)[C@@H]2O)[C@H](O)[C@@H](O)[C@@H]1O` [UDP-glucuronic acid], the “concentration of endogenous UDP-glucuronic acid in yeast cells” value in data set [1] is 4 to 5 mM.

As to `O=c1ccc2ccc(O)cc2o1` [7OHC, 7-hydroxycoumarine, reference compound], the “conversion to glucuronide, time course (FIG. 6)” value at UGT1A6 (0.5 mM 7OHC, after 24 hrs) is on record as “complete conversion”. Also, the “conversion to glucuronide, glucose dependence (FIG. 7)” value on UGT1A6 (at 8% (w/v) glucose) is on record as “complete conversion”.

As for `O=C(O)[C@H]1O[C@@H](Oc2ccc3ccc(=O)oc3c2)[C@H](O)[C@@H](O)[C@@H]1O` [glucuronide of 7-hydroxycoumarine, 7-hydroxycoumarine glucuronide], the “production of glucuronide (FIG. 5)” value is “observed” at hUGT1A8 (UGT1A8 with At.UDPGDH, 7-hydroxycoumarine substrate, 30° C., 24 hrs); “observed” on hUGT1A1 [2]; “observed” on hUGT1A9; “observed” at hUGT1A7; “observed” on UGT1A6 (UGT1A6 with At.UDPGDH, 7-hydroxycoumarine substrate, 30° C., 24 hrs). In addition, the productivity of glucuronide on UGT1A6 (optimal conditions, cells expressing UDPGDH and UGT1A6) is listed as 200 mg per liter of reaction solution.

As for `O=c1c(O)c(-c2ccc(O)c(O)c2)oc2cc(O)cc(O)c12` [Quercetin, quercetin], the “site of glucuronidation (FIG. 9)” value on hUGT1A1 [3] is recorded as “preferential production of querecetin glucuronide at 3′ phenolic hydroxyl group in B ring”.

As to `Cc1cccc(Nc2ccccc2C(=O)O[C@@H]2O[C@H](C(=O)O)[C@@H](O)[C@H](O)[C@H]2O)c1C` [mefenamic acid acyl glucuronide], the “acyl glucuronide formation (FIG. 11)” value on UGT1A10 was “significant activity”; at hUGT1A8 (1 mM mefenamic acid, UGT1A8), “significant activity”.

In the case of `COc1c(C)c2c(c(O[C@@H]3O[C@H](C(=O)O)[C@@H](O)[C@H](O)[C@H]3O)c1C/C=C(\C)CCC(=O)O)C(=O)OC2` [mycophenolic acid glucuronide], the “production of glucuronide (FIG. 10)” value at hUGT1A9 (0.2 mM mycophenolic acid, 8% glucose, 30° C., 24 hrs) is reported as “confirmed”.
